Measurements as given in patent publication US20240262833A1, “FUSED HETEROCYCLIC DERIVATIVES AS NEGATIVE ALLOSTERIC MODULATORS OF MGLU7 RECEPTOR” (Addex Pharma S.A., priority 2021, published 2024).
pIC50: −log10 of the molar value.

The compounds below were run against T1, human metabotropic glutamate 7 receptor (hmGlu7) (Homo sapiens, UniProt Q14831) (assay: mGlu7 assay on HEK-expressing human mGlu7: fluorescent cell based Ca2+ mobilization assay (FLIPR), inhibition of EC80 L-AP4 response). Settings: HEK-293 cells expressing hmGlu7; EC80 L-AP4 stimulation; mean of at least three independent experiments in duplicate; read-out: Ca2+ Flux (mean IC50).
T1 construct: expressed in transfected cells
T1 sequence (Q14831 35-922 isoform Q14831-2): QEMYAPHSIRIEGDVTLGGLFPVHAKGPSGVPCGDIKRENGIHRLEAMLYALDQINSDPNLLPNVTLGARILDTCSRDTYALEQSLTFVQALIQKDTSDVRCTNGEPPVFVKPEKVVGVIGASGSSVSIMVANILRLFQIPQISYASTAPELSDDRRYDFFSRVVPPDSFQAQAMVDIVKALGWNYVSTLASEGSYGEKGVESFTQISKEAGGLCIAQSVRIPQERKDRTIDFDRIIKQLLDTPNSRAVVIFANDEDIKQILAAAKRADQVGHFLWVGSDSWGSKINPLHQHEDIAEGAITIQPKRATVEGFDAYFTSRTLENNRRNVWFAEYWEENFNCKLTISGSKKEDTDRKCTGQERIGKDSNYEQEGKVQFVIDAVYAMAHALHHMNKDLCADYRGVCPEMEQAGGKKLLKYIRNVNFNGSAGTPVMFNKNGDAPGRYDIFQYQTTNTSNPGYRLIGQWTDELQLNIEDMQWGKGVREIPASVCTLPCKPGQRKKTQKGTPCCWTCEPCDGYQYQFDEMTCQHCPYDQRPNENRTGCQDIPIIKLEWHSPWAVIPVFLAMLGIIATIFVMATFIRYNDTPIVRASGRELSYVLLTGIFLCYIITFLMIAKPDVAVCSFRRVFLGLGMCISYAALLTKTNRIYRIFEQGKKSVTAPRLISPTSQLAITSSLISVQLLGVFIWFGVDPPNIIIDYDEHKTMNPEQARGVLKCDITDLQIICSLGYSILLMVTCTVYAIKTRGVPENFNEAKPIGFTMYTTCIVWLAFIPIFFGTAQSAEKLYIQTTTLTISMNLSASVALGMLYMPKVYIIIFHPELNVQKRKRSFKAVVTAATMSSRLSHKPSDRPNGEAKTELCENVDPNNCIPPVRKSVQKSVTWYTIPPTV
Text: mGlu7 Assay on HEK-Expressing Human mGlu7
The cDNA encoding the human metabotropic glutamate 7 receptor (hmGlu7), (accession number NM_181874.2, NCBI Nucleotide database browser), was subcloned into an expression vector containing also the hygromycin resistance gene. In parallel, the cDNA encoding a G protein allowing redirection of the activation signal to intracellular calcium flux was subcloned into a different expression vector containing also the Puromycin resistance gene. Transfection of both these vectors into HEK293 cells with PolyFect reagent (Qiagen) according to supplier's protocol, and hygromycin and puromycin treatment allowed selection of antibiotic resistant cells which had integrated stably one or more copies of the plasmids. Positive cellular clones expressing hmGlu7 were identified in a functional assay measuring changes in calcium fluxes in response to glutamate and L-AP4 or known mGlu7 orthosteric antagonists.
HEK-293 cells expressing hmGlu7 were maintained in media containing DMEM, Fetal Bovine Serum (10%), Glutamax™ (2 mM), penicillin (100 units/mL), streptomycin (100 μg/mL), geneticin (100 μg/mL) and hygromycin-B (40 μg/mL) and puromycin (1 μg/mL) at 37° C. with 5% CO2 in a humidified atmosphere.
Fluorescent Cell Based-Ca^2+ Mobilization Assay Human mGlu7 HEK-293 cells were plated out 24 hours prior to a fluorescent cell-based calcium mobilization assay using FLIPR^384 assay (Molecular Device, Sunnyvale, CA, USA) in black-walled, clear-bottomed, poly-L-ornithine-coated 384-well plates at a density of 25,000 cells/well in a glutamine/glutamate free DMEM medium containing fetal bovine serum (10%), penicillin (100 units/mL), streptomycin (100 μg/mL) and doxycyline (1 μg/ml) at 37° C. with 5% CO2 in a humidified atmosphere.
On the day of the assay, the medium was aspirated and the cells were loaded with a 3 μM solution of Fluo4-AM (LuBioScience, Lucerne, Switzerland) in 0.03% pluronic acid. After 1 hour at 37° C./5% CO2, the non incorporated dye was removed by washing cell plate with the assay buffer. All assays were performed in a pH 7.4 buffered-solution containing 20 mM HEPES, 143 mM NaCl, 6 mM KCl, 1 mM MgSO4, 1 mM CaCl2, 0.125 mM sulfinpyrazone and 0.1% glucose.
After 10 s of basal fluorescence recording, various concentrations of the compounds of the invention were added to the cells. Changes in fluorescence levels were first monitored for 180 s in order to detect any agonist activity of the compounds. Then the cells were stimulated by an EC80 L-AP4 concentration for an additional 110 s in order to measure inhibiting activities of the compounds of the invention. EC80 L-AP4 concentration is the concentration giving 80% of the maximal glutamate response.
The concentration-response curves of L-AP4 or representative compounds of the present invention were generated using the Prism GraphPad software (Graph Pad Inc, San Diego, USA). The curves were fitted to a four-parameter logistic equation: […]
allowing determination of IC50 values.
The Table 3 below represents the mean IC50 obtained from at least three independent experiments of selected molecules performed in duplicate.

| pIC50 | Compound |
| --- | --- |
| 6.00 to 7.00 | Cc1c2cnn(-c3cccc(C#N)c3)c(=O)c2c(C)n1-c1ccccc1 [1-16] |
| > 7.00 | Cc1c2cnn(-c3ccncc3)c(=O)c2c(C)n1-c1cccc(N2CCC2)c1 [1-156] |
| > 7.00 | Cc1c2cnn(-c3ccc(CCF)cc3)c(=O)c2c(C)n1-c1cccc(N2CCC2)c1 [1-189, 6-(3-(Azetidin-1-yl)phenyl)-2-(4-(2-fluoroethyl)phenyl)-5,7-dimethyl-2,6-dihydro-1H-pyrrolo[3,4-d]pyridazin-1-one] |
| 6.00 to 7.00 | Cc1c2cnn(-c3ccccn3)c(=O)c2c(C)n1-c1cccc(N(C)C)c1 [1-110] |
| > 7.00 | Cc1c(OC2CC2)cccc1-n1c(C)c2cnn(-c3ncccn3)c(=O)c2c1C [1-200] |
| 6.00 to 7.00 | COc1cccc(-n2c(C)c3cnn(-c4ncc(C5CC5)cn4)c(=O)c3c2C)c1C [1-207] |
| 6.00 to 7.00 | Cc1c2cnn(-c3ccccn3)c(=O)c2c(C)n1-c1ccc(C2CC2)cc1 [1-186] |
| 6.00 to 7.00 | Cc1c2cnn(-c3ccccc3)c(=O)c2c(C)n1-c1cccc(N2CCOCC2)c1 [1-33] |
| > 7.00 | Cc1ccnc(-n2ncc3c(C)n(-c4cccc(N5CCC5)c4)c(C)c3c2=O)c1 [1-161] |
| > 7.00 | Cc1c2cnn(-c3ccccn3)c(=O)c2c(C)n1-c1cccc(-n2cccc2)c1 [1-142] |
| > 7.00 | Cc1c2cnn(-c3ccccn3)c(=O)c2c(C)n1-c1cccc(N2CCCC2)c1 [1-59] |
| > 7.00 | COCc1cccc(-n2ncc3c(C)n(-c4cccc(OC)c4)c(C)c3c2=O)c1 [1-116] |
| > 7.00 | Cc1c2cnn(-c3ncccc3F)c(=O)c2c(C)n1-c1cccc2c1ccn2C1CC1 [1-213] |
| 6.00 to 7.00 | COc1cccc(-n2c(C)c3cnn(-c4ccccc4OC)c(=O)c3c2C)c1 [1-148] |
| 6.00 to 7.00 | Cc1c2cnn(-c3ccc(C(=O)CNC(=O)OC(C)(C)C)cc3)c(=O)c2c(C)n1-c1cccc(N2CCC2)c1 [1-184] |
| 6.00 to 7.00 | Cc1c2cnn(-c3ccncc3)c(=O)c2c(C)n1-c1ccccc1 [1-37] |
| 6.00 to 7.00 | CC(=O)c1ccc(-n2ncc3c(C)n(-c4ccccc4)c(C)c3c2=O)cc1 [1-27] |
| 6.00 to 7.00 | Cc1cccnc1-n1ncc2c(C)n(-c3cccc(N4CCC4)c3)c(C)c2c1=O [1-159] |
| > 7.00 | COc1cccc(-n2c(C)c3cnn(-c4ccc(CCCO)cc4)c(=O)c3c2C)c1 [1-118] |
| 6.00 to 7.00 | COc1cccc(-n2c(C)c3cnn(-c4ccccc4Cl)c(=O)c3c2C)c1 [1-150] |
| 5.00 to 6.00 | Cc1c2cnn(-c3ccccn3)c(=O)c2c(C)n1-c1ccccc1 [1-22] |
| 6.00 to 7.00 | COc1cccc(-n2c(C)c3cnn(-c4ccc(C(C)(C)C)cn4)c(=O)c3c2C)c1 [1-206] |

| pIC50 | Compound |
| --- | --- |
| > 7.00 | Cc1c2cnn(-c3ccc(Cl)cn3)c(=O)c2c(C)n1-c1cccc(N2CCC2)c1 [1-183] |
| > 7.00 | Cc1cnc(-n2ncc3c(C)n(-c4cccc(N5CCC5)c4)c(C)c3c2=O)nc1 [1-228] |
| 6.00 to 7.00 | Cc1c2cnn(-c3ccc(S(N)(=O)=O)cc3)c(=O)c2c(C)n1-c1cccc(N2CCOCC2)c1 [1-68] |
| 6.00 to 7.00 | COc1cccc(-n2c(C)c3cnn(-c4ccc(C(F)(F)F)cn4)c(=O)c3c2C)c1 [1-122] |
| > 7.00 | COc1cc(-n2ncc3c(C)n(-c4cccc(N5CCC5)c4)c(C)c3c2=O)ccc1CO [1-166] |
| 5.00 to 6.00 | Cc1c2cnn(-c3ccccn3)c(=O)c2c(C)n1-c1ccc2cc[nH]c2c1 [1-80] |
| 5.00 to 6.00 | COc1cccc(-n2c(C)c3cnn(-c4cccc(OC)n4)c(=O)c3c2C)c1 [1-74] |
| 6.00 to 7.00 | CCc1c2c(=O)n(-c3ccccn3)ncc2c(C)n1-c1cccc(OC)c1 [1-78] |
| 6.00 to 7.00 | COc1cccc(-n2c(C)c3cnn(-c4ncccn4)c(=O)c3c2C)c1F [1-234] |
| 6.00 to 7.00 | Cc1c2cnn(-c3ncccn3)c(=O)c2c(C)n1-c1cccc(N2CCC2)c1 [1-223] |
| > 7.00 | Cc1c2cnn(-c3ccc(C(C)(C)O)cc3)c(=O)c2c(C)n1-c1cccc(N2CCC2)c1 [1-170, 6-(3-(Azetidin-1-yl)phenyl)-2-(4-(2-hydroxypropan-2-yl)phenyl)-5,7-dimethyl-2,6-dihydro-1H-pyrrolo[3,4-d]pyridazin-1-one] |
| > 7.00 | Cc1c2cnn(-c3ccc(N4CCNCC4)cc3)c(=O)c2c(C)n1-c1cccc(N2CCC2)c1 [1-174] |
| 6.00 to 7.00 | CCOc1cccc(-n2c(C)c3cnn(-c4ccccn4)c(=O)c3c2C)c1 [1-77] |
| 6.00 to 7.00 | COc1ccccc1-n1c(C)c2cnn(-c3ccccc3)c(=O)c2c1C [1-18] |
| 6.00 to 7.00 | Cc1c2cnn(-c3ccc(N4CCOCC4)cc3)c(=O)c2c(C)n1-c1ccccc1 [1-93] |
| > 7.00 | COc1cccc(-n2ncc3c(C)n(-c4ccccc4)c(C)c3c2=O)c1 [1-12] |
| 6.00 to 7.00 | COc1cccc(-n2c(C)c3cnn(-c4ccc(N5CCOCC5)cc4)c(=O)c3c2C)c1 [1-70] |
| 6.00 to 7.00 | Cc1c2cnn(-c3ccccn3)c(=O)c2c(C)n1-c1cccc2c1CCN2C [1-210] |
| > 7.00 | COc1cccc(-n2c(C)c3cnn(-c4cccc(OC)c4)c(=O)c3c2C)c1 [1-130] |
| 5.00 to 6.00 | COc1ccc(-n2ncc3c(C)n(-c4ccccn4)c(C)c3c2=O)cc1 [1-81] |
| > 7.00 | Cc1c2cnn(-c3ccc(CC(N)=O)cc3)c(=O)c2c(C)n1-c1cccc(N2CCC2)c1 [1-185] |
| > 7.00 | Cc1c2cnn(-c3ncccn3)c(=O)c2c(C)n1-c1cccc(OC2CC2)c1F [1-236] |

| pIC50 | Compound |
| --- | --- |
| 6.00 to 7.00 | Cc1ccc(-n2ncc3c(C)n(-c4ccccc4)c(C)c3c2=O)cn1 [1-50] |
| 6.00 to 7.00 | COc1cccc(-n2c(C)c3cnn(-c4cccnc4)c(=O)c3c2C)c1 [1-41] |
| > 7.00 | Cc1ccc(-n2ncc3c(C)n(-c4ccccc4)c(C)c3c2=O)cc1 [1-15] |
| 6.00 to 7.00 | COc1cccc(-n2c(C)c3cnn(-c4ccccn4)c(=O)c3c2C)c1Cl [1-197] |
| 6.00 to 7.00 | CC(=O)NCc1ccc(-n2ncc3c(C)n(-c4ccccc4)c(C)c3c2=O)cc1 [1-104] |
| > 7.00 | Cc1cc(-n2ncc3c(C)n(-c4cccc(N5CCC5)c4)c(C)c3c2=O)cc(C)n1 [1-165] |
| > 7.00 | Cc1c2cnn(-c3ccccn3)c(=O)c2c(C)n1-c1cccc(-c2ccco2)c1 [1-136] |
| > 7.00 | CCOc1cccc(-n2ncc3c(C)n(-c4cccc(OC)c4)c(C)c3c2=O)c1 [1-144] |
| 6.00 to 7.00 | COc1ccc(-n2c(C)c3cnn(-c4ccc(CNC(C)=O)cc4)c(=O)c3c2C)cc1 [1-106] |
| 5.00 to 6.00 | Cc1c2cnn(-c3ccccn3)c(=O)c2c(C)n1-c1ccc2ccn(C)c2c1 [1-96, 5,7-Dimethyl-6-(1-methyl-1H-indol-6-yl)-2-(pyridin-2-yl)-2,6-dihydro-1H-pyrrolo[3,4-d]pyridazin-1-one] |
| 6.00 to 7.00 | COc1ccc(-n2c(C)c3cnn(-c4ccccc4)c(=O)c3c2C)cc1 [1-24] |
| 6.00 to 7.00 | Cc1c2cnn(-c3ccc(N4CCCC4)cc3)c(=O)c2c(C)n1-c1cccc(N2CCC2)c1 [1-168, 6-(3-(Azetidin-1-yl)phenyl)-5,7-dimethyl-2-(4-(pyrrolidin-1-yl)phenyl)-2,6-dihydro-1H-pyrrolo[3,4-d]pyridazin-1-one] |
| 6.00 to 7.00 | Cc1ccc(-n2c(C)c3cnn(-c4cccnc4)c(=O)c3c2C)cc1 [1-39] |
| 5.00 to 6.00 | Cc1c2cnn(-c3nccs3)c(=O)c2c(C)n1-c1cccc(N2CCC2)c1 [1-227] |
| 5.00 to 6.00 | COCCNc1ccc(-n2c(C)c3cnn(-c4ccccc4)c(=O)c3c2C)cc1 [1-42] |
| 6.00 to 7.00 | Cc1c2cnn(-c3ccc(S(C)(=O)=O)cc3)c(=O)c2c(C)n1-c1ccccc1 [1-30] |
| 6.00 to 7.00 | COc1cccc(-n2c(C)c3cnn(-c4cccc(C#N)c4)c(=O)c3c2C)c1 [1-124] |
| 6.00 to 7.00 | Cc1c2cnn(C34CC(C3)C4)c(=O)c2c(C)n1-c1cccc(N2CCC2)c1 [1-222] |
| > 7.00 | Cc1c2cnn(-c3ccccc3)c(=O)c2c(C)n1-c1cccc(N(C)C)c1 [1-35] |
| > 7.00 | COc1cccc(-n2c(C)c3cnn(-c4cccc(CC#N)c4)c(=O)c3c2C)c1 [1-146] |
| > 7.00 | COCc1ccc(-n2ncc3c(C)n(-c4ccccc4)c(C)c3c2=O)cc1 [1-38] |
| 6.00 to 7.00 | COc1cccc(-n2c(C)c3cnn(-c4ncc(C)cn4)c(=O)c3c2C)c1Cl [1-204] |
